Values after ≈ are worked out from the molar mass of the structure shown. Where two headings read alike, the source gives them in different places. One block for each compound: values may come before it.
Key:
Format in all cases: physicochemical
[1] = Competitive slurries of Form A and Form B (XRPD)
Protocol: Slurry experiments were performed at ambient, 40° C. and 60° C. temperatures using 2-propanol, tert-butyl methyl ether, toluene and ethanol as solvents.
(§1) Saturated solutions of 2-propanol, tert-butylmethyl ether, toluene and ethanol were prepared at ambient temperature. ca. 25 mg of Form A and Form B were weighed into a vial to create 50 mg 50:50 wt/wt mixture of the two batches. The appropriate solvent was added to the mixture and the resulting slurry was stirred for 48 h at ambient temperature, before the solid was analyzed by XRPD.
as §1, with “40° C.” for “ambient temperature.”, “40° C.,” for “ambient temperature,”
as §1, with “2-propanol,” for “2-propanol, tert-butylmethyl ether,”, “60° C.” for “ambient temperature.”, “60° C.,” for “ambient temperature,”

[2] = 7-Day stability study (XRPD and HPLC after storage)
Protocol: The stability of Forms A and B were measured following storage for 7-days at ambient, 40° C./75% RH and 80° C. About 15 mg of Forms A and B were individually placed in each of 3 vials and stored uncapped for 7 days under the following conditions; ambient, 40° C./75% RH, 80° C. Following the 7 days, XRPD analysis was performed on each sample to determine its form and crystallinity and HPLC analysis was conducted to determine the sample purity.

[3] = Aqueous solubility (24 h mixing, filtrate by HPLC); conditions: thermodynamic from solid
Protocol: The aqueous solubility of several lots of Forms A and B were measured. […] The sample was filtered using a syringe filter and the filtrate was analyzed by HPLC to determine the solubility. The remaining solid was analysis by XRPD to determine its form and crystallinity. Solubility data for micronized materials was also collected. As noted in Table 3, slight variations in aqueous solubility were noted, particularly for the micronized samples.

[4] = Solubility screen for Form A in organic solvents
Protocol: A solubility screen for Form A was conducted in 24 solvents. About 5 mg of Form A was placed in each of 24 vials and 5 volume aliquots of the appropriate solvent systems listed in Table 1 were added to the appropriate vial. Between each addition, the mixture was checked for dissolution by visual inspection, and if no dissolution was apparent, the mixture was heated to ca. 40° C. and checked again. This procedure was continued until dissolution was observed or until 100 volumes of solvent had been added.
Form A appeared to be highly soluble (above ˜100 mg/mL) in a number of solvents, […] diisopropyl ether, heptane and toluene. These solvents were identified as possible anti-solvents for the primary polymorph screen. Additional solvent/water mixtures suitable for freeze drying were tested.

- Form by XRPD after competitive slurry ([1]; 2-Propanol, 40° C., 48 h): Form B
- Form by XRPD after competitive slurry ([1]; 2-Propanol, 60° C., 48 h, footnote: Primarily Form B): Mixture^a
- Form by XRPD after competitive slurry ([1]; 2-Propanol, Ambient, 48 h): Form B
- Form by XRPD after competitive slurry ([1]; Ethanol, 40° C., 48 h): Form B
- Form by XRPD after competitive slurry ([1]; Ethanol, 60° C., 48 h, footnote: primarily Form A with some Form B present): Mixture^b
- Form by XRPD after competitive slurry ([1]; Ethanol, Ambient, 48 h): Form B
- Form by XRPD after competitive slurry ([1]; Ethanol, Repeat 60° C., only Form B observed): Form B^b
- Form by XRPD after competitive slurry ([1]; TBME, 40° C., 48 h): Form B
- Form by XRPD after competitive slurry ([1]; TBME, Ambient, 48 h): Form B
- Form by XRPD after competitive slurry ([1]; Toluene, 40° C., 48 h): Form B
- Form by XRPD after competitive slurry ([1]; Toluene, 60° C., 48 h): Form B
- Form by XRPD after competitive slurry ([1]; Toluene, Ambient, 48 h): Form B
Structure (SMILES): CS(=O)(=O)c1ccc(Oc2cc(F)cc(C#N)c2)c2c1[C@H](O)C(F)(F)C2 (mixture of isomers) [50:50 wt/wt mixture, (S)-3-((2,2-difluoro-1-hydroxy-7-(methylsulfonyl)-2,3-dihydro-1H-inden-4-yl)oxy)-5-fluorobenzonitrile]

- Crystallinity after storage ([2]; 7 days at 80° C.): appeared to lose crystallinity
- Form change by XRPD after storage ([2]; 7 days uncapped, ambient, 40° C./75% RH, 80° C.): no signs of form change
- Purity by HPLC after storage ([2]; 7 days, over all three conditions (ambient, 40° C./75% RH, 80° C.)): 99.0%
- solubility at 24 h ([3]; fassif, Fasted State Simulated Small Intestinal Fluid, read-out: Aqueous Solubility FaSSIF): 0.063 mg/mL (≈ 0.164 mM)
- solubility at 24 h ([3]; fessif, Fed State Simulated Small Intestinal Fluid, read-out: Aqueous Solubility FeSSIF): 0.086 mg/mL (≈ 0.224 mM)
- solubility at 24 h ([3]; pH 1.2, simulated gastric fluid, pH 1.2, read-out: Aqueous Solubility pH 1.2): 0.029 mg/mL (≈ 0.0756 mM)
- solubility at 24 h ([3]; pH 6.5, aqueous buffer, pH 6.5, read-out: Aqueous Solubility pH 6.5): 0.025 mg/mL (≈ 0.0652 mM)
- solubility at 24 h ([3]; pH 7.4, aqueous buffer, pH 7.4, read-out: Aqueous Solubility pH 7.4): 0.026 mg/mL (≈ 0.0678 mM)
- solubility ([4]; 40 °C, organic solvent or mixture, thermodynamic from solid, 1,4-Dioxane, solubility observed at 40° C., read-out: Solubility): > 200 mg/mL
- solubility ([4]; 40 °C, organic solvent or mixture, thermodynamic from solid, Acetonitrile, solubility observed at 40° C., read-out: Solubility): > 200 mg/mL
- solubility ([4]; 40 °C, organic solvent or mixture, thermodynamic from solid, Diisopropyl ether, solubility observed at 40° C., read-out: Solubility): > 2 mg/mL
- solubility ([4]; 40 °C, organic solvent or mixture, thermodynamic from solid, Methyl isobutyl ketone, solubility observed at 40° C., read-out: Solubility): 160 mg/mL (≈ 417 mM)
- Solubility in words ([4]; THF:Water (50%), separation into API-saturated THF layer and API-free aqueous layer observed): Sufficient solubility
- solubility ([4]; aqueous with cosolvent or surfactant or cyclodextrin, thermodynamic from solid, Acetone: Water (60%), read-out: Solubility): < 2 mg/mL
- solubility ([4]; aqueous with cosolvent or surfactant or cyclodextrin, thermodynamic from solid, Ethanol: Water (50%), read-out: Solubility): < 2 mg/mL
- solubility ([4]; aqueous with cosolvent or surfactant or cyclodextrin, thermodynamic from solid, Methanol: Water (50%), read-out: Solubility): < 2 mg/mL
- solubility ([4]; aqueous with cosolvent or surfactant or cyclodextrin, thermodynamic from solid, THF: Water (50%), read-out: Solubility): 100 mg/mL (≈ 261 mM)
- solubility ([4]; organic solvent or mixture, thermodynamic from solid, 2-Propanol, read-out: Solubility): 9 mg/mL (≈ 23.5 mM)
- solubility ([4]; organic solvent or mixture, thermodynamic from solid, Acetone: Water (5%), read-out: Solubility): > 200 mg/mL
- solubility ([4]; organic solvent or mixture, thermodynamic from solid, Acetone: Water (20%), read-out: Solubility): > 200 mg/mL
- solubility ([4]; organic solvent or mixture, thermodynamic from solid, Acetone, read-out: Solubility): > 200 mg/mL
- solubility ([4]; organic solvent or mixture, thermodynamic from solid, Acetonitrile: Water (10%), read-out: Solubility): > 200 mg/mL
- solubility ([4]; organic solvent or mixture, thermodynamic from solid, Dichloromethane, read-out: Solubility): 80 mg/mL (≈ 209 mM)
- solubility ([4]; organic solvent or mixture, thermodynamic from solid, Dimethylformamide, read-out: Solubility): > 200 mg/mL
- solubility ([4]; organic solvent or mixture, thermodynamic from solid, Dimethylsulfoxide, read-out: Solubility): 160 mg/mL (≈ 417 mM)
- solubility ([4]; organic solvent or mixture, thermodynamic from solid, Ethanol, read-out: Solubility): 60 mg/mL (≈ 157 mM)
- solubility ([4]; organic solvent or mixture, thermodynamic from solid, Ethyl acetate, read-out: Solubility): 160 mg/mL (≈ 417 mM)
- solubility ([4]; organic solvent or mixture, thermodynamic from solid, Heptane, read-out: Solubility): < 2 mg/mL
- solubility ([4]; organic solvent or mixture, thermodynamic from solid, Isopropyl acetate, read-out: Solubility): 90 mg/mL (≈ 235 mM)
- solubility ([4]; organic solvent or mixture, thermodynamic from solid, Methanol, read-out: Solubility): 90 mg/mL (≈ 235 mM)
- solubility ([4]; organic solvent or mixture, thermodynamic from solid, Methyl acetate, read-out: Solubility): > 200 mg/mL
- solubility ([4]; organic solvent or mixture, thermodynamic from solid, Methylethyl ketone, read-out: Solubility): > 200 mg/mL
- solubility ([4]; organic solvent or mixture, thermodynamic from solid, N-Methyl-2-pyrrolidone, read-out: Solubility): 130 mg/mL (≈ 339 mM)
- solubility ([4]; organic solvent or mixture, thermodynamic from solid, Tetrahydrofuran, read-out: Solubility): > 200 mg/mL
- solubility ([4]; organic solvent or mixture, thermodynamic from solid, Toluene, read-out: Solubility): > 2 mg/mL
- solubility ([4]; organic solvent or mixture, thermodynamic from solid, in a number of solvents, read-out: Solubility (highly soluble)): > 100 mg/mL
- solubility ([4]; organic solvent or mixture, thermodynamic from solid, tert-Butylmethyl ether, read-out: Solubility): 35 mg/mL (≈ 91.3 mM)
- Solubility in words ([4]; water (hydrophobic behavior observed), diisopropyl ether, heptane and toluene): insoluble
- solubility ([4]; water, thermodynamic from solid, Water, read-out: Solubility): < 2 mg/mL
Structure (SMILES): CS(=O)(=O)c1ccc(Oc2cc(F)cc(C#N)c2)c2c1[C@H](O)C(F)(F)C2 [Form A, (S)-3-((2,2-difluoro-1-hydroxy-7-(methylsulfonyl)-2,3-dihydro-1H-inden-4-yl)oxy)-5-fluorobenzonitrile]

- Purity by HPLC after storage ([2]; 7 days at 80° C., drop from 99.7%): 99.3%
- Crystallinity after storage ([2]; 7 days, over the three conditions (ambient, 40° C./75% RH, 80° C.)): maintained crystallinity
- Thermodynamic stability of the form (conclusion of competitive slurries) ([1]; all solvents, ambient, 40° C. and 60° C.): the most thermodynamically form
Structure (SMILES): CS(=O)(=O)c1ccc(Oc2cc(F)cc(C#N)c2)c2c1[C@H](O)C(F)(F)C2 [Form B, (S)-3-((2,2-difluoro-1-hydroxy-7-(methylsulfonyl)-2,3-dihydro-1H-inden-4-yl)oxy)-5-fluorobenzonitrile]
